In patent US20040122089A1, “Novel eicosanoid analgesics” (priority 2001, published 2004):
Like-named read-outs stand apart in the source and are kept apart here.

Key:
AMT = type: cell-based, rat; conditions: [14C]AEA uptake, RBL-2H3 cells; read-out: AEA transport (IC50)
Method: AEA. Cells were incubated with [^14C] AEA for 5 min at 37° C., in the presence or absence of varying concentrations of the inhibitors. Residual [^14C] AEA in the incubation media after extraction with CHCl3/CH3OH 2:1 (by vol.), determined by scintillation counting of the lyophilized organic phase, was used as a measure of the AEA that was taken up by cells.
(§1) CP55940 from whole rat brain membranes.

FAAH = molecular target: T1, FAAH (Rattus norvegicus, UniProt P97612); assay: Fatty acid amide hydrolase assay, rat brain membranes; type: biochemical
T1 construct: membranes prepared from frozen brains of CD rats (Charles River, France); from tissue; host or cells: brain membranes of CD rats
T1 sequence (P97612 1-579): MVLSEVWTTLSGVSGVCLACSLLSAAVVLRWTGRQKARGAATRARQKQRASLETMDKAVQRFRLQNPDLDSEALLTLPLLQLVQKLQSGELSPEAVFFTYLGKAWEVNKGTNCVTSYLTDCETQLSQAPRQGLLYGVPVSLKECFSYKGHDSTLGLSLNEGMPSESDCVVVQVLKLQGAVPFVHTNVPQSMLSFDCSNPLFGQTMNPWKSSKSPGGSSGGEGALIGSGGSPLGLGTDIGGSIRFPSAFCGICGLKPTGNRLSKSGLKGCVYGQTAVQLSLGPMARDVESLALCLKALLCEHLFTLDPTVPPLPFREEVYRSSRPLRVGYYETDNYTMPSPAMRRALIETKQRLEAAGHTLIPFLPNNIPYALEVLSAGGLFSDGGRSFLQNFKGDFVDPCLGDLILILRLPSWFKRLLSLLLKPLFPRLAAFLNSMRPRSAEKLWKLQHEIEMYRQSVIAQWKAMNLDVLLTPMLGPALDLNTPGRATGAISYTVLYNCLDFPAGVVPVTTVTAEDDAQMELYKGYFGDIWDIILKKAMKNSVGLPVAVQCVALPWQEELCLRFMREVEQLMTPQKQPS
Method: Fatty acid amide hydrolase assay—The effect of compounds on the enzymatic hydrolysis of AEA was studied using membranes prepared from frozen brains of CD rats (Charles River, France), incubated with the test compounds and [^14C] AEA (9 μM) in 50 mM Tris-HCl, pH 9, for 30 min at 37° C. [^14C] Ethanolamine produced from [^14C] AEA hydrolysis was measured by scintillation counting of the aqueous phase after extraction of the incubation mixture with 2 volumes of CHCl3/CH3OH 2:1 (by vol.).
as §1

mice [1] = assay: Mouse tetrad of behavioral tests, i.v. (Example 3); type: in vivo; conditions: for Average ED50 / R.I. ED50 / Rectal temp. ED50 / Spontan. activity ED50 / Tail Flick ED50: i.v.; for R.I. ED50 / Rectal temp. ED50 / Spontan. activity ED50 / Tail Flick ED50: mean (range)
Method: (§2) The analogs were administered to mice by tail-vein injection and evaluated for their ability to produce hypomotility, hypothermia, and antinociception. These pharmacological measures were determined in the same mouse at a time when maximal activity was present. […] A 10-sec maximum latency was used. Antinociception was expressed as % MPE as described below.
Data Analysis—For production of hypomotility and hypothermia, the data were expressed as a percentage of control activity and change in temperature, respectively. Antinociception was calculated according to the following equation.
% MPE=−((test latency-control latency)/(10s-control latency))×100
At least six animals were treated with each dose-response relationships could be determined for each analog. ED50 values were determined from least-squares unweighted linear regression analysis of log dose-response plots.
The ED50 (milligrams per kilogram, i.v.) does for inhibition of sector crossings (spontaneous activity) in an open field, antinociception (delay in seconds in the tail-flick response), decrease of rectal temperature in degrees Celsius, and induction of time spent in immobility on a ring are shown. Data are means (and ranges) of N>six animals.

CB1 receptors [2] = molecular target: T2, CB1 receptors (Rattus norvegicus, UniProt P20272); assay: Agonist-stimulated [35S]GTPγS binding, rat hippocampal membranes; conditions: for Emax: read-out: GTPγS binding (Emax)
T2 sequence (P20272 whole entry): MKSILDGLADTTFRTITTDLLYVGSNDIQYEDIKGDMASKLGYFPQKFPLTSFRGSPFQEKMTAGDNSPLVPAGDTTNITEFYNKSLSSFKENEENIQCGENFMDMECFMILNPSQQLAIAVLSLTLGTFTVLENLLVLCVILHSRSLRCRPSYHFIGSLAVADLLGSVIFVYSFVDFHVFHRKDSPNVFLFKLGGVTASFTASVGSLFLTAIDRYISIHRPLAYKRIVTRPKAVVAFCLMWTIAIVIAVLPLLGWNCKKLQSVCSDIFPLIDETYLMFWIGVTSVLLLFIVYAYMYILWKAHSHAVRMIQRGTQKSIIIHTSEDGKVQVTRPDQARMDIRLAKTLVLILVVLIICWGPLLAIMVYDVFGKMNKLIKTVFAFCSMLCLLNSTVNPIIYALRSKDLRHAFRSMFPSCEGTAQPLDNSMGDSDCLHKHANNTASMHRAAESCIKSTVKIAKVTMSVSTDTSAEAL

human VR1 receptor = human VR1 receptor (Homo sapiens, UniProt Q8NER1); assay: Cytosolic calcium concentration assay in HEK-hVR1 cells (Example 3); conditions: for Emax: read-out: hVR1 efficacy (maximal effect, in parentheses)
human VR1 receptor, sequence (Q8NER1 whole entry): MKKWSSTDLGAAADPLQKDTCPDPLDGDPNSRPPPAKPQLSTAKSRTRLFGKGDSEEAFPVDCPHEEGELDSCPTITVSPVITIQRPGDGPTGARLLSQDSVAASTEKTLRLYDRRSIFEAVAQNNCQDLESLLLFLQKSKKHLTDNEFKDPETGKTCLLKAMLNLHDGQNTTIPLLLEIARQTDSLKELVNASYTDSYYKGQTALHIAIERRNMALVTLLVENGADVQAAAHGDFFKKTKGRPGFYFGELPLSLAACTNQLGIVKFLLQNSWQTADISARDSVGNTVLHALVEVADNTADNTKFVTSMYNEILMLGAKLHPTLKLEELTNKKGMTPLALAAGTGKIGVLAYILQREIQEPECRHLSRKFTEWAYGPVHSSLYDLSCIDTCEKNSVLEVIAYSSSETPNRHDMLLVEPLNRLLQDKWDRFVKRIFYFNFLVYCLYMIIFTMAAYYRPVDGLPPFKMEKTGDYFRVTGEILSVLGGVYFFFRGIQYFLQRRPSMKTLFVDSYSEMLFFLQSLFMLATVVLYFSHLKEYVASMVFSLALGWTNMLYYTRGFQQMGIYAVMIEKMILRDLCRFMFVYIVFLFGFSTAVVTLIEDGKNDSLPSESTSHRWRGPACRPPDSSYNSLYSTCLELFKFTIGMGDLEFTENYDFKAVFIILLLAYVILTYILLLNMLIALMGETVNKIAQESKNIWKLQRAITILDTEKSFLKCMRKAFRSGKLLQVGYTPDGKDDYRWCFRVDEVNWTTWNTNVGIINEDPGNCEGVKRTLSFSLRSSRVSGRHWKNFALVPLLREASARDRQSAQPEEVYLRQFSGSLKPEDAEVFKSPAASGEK

CB1 receptors [3] = molecular target: T2, CB1 receptors; assay: CB1 receptor binding, [3H]CP55940, whole rat brain membranes (Example 3)
mice [4] = assay: SR141716A pre-treatment before compounds in spontaneous activity and tail-flick tests in mice; type: in vivo, mouse; conditions: for effect of SR141716A pre-treatment on the compound's effects in the tetrad tests: SR141716A 3 mg/kg i.v., 10 min pre-treatment; for Spontaneous Activity (Beam Interuptions), SR14176a + comp / Tail-Flick Latency (% MPE), SR14176a + comp: SR14176A 3 mg/kg i.v. 10 min before
Method: as §2
Data are means ±S.E. of n≧six animals.

| Structure (SMILES) | IC50 (AMT) | IC50 (FAAH) | Average ED50 (mice [1]) | R.I. ED50 (mice [1]) | Rectal temp. ED50 (mice [1]) | Spontan. activity ED50 (mice [1]) | Tail Flick ED50 (mice [1]) | Emax (CB1 receptors [2]) | EC50 (human VR1 receptor) | Emax (human VR1 receptor) | Ki (CB1 receptors [3]; read-out: CB1 affinity Ki) | also measured |
| --- | --- | --- | --- | --- | --- | --- | --- | --- | --- | --- | --- | --- |
| CCCCC/C=C\C/C=C\C/C=C\C/C=C\CCCC(=O)NCc1ccc(OC(=O)CCCN2CCOCC2)c(OC)c1 [Compound O-2142] | 30000 ± 4300 nM | 9100 ± 1700 nM | 0.17 milligrams per kilogram | 0.17 (0.13-0.22) milligrams per kilogram | 0.11 (0.07-0.17) milligrams per kilogram | 0.20 (0.16-0.24) milligrams per kilogram | 0.19 (0.15-0.25) milligrams per kilogram | 0% | 0.6 ± 0.2 nM | 86.6% | 483 ± 63 nM | activity in the GTPγS binding assay (CB1 receptors [2]): inactive |
| CCCCC/C=C\C/C=C\C/C=C\C/C=C\CCCC(=O)NCc1ccc(O)c(Cl)c1 [Compound O-2094] | 19000 ± 2100 nM | 4500 ± 700 nM | 1.68 milligrams per kilogram | 1.93 (1.56-2.39) milligrams per kilogram | 3.77 (1.21-11.76) milligrams per kilogram | 0.52 (0.38-0.71) milligrams per kilogram | 0.49 (0.35-0.67) milligrams per kilogram | 15% | 10 nM | 63.5% | 275 ± 16 nM | ED50 (mice [1]; Mus musculus, iv, read-out: ED50 values, range over the four parameters of the mouse 'tetrad'): 0.49 to 3.77 mg/kg; effect of SR141716A pre-treatment on the compound's effects in the tetrad tests (mice [4]): not affected; effect of SR141716A pre-treatment on the compound's effects in the tetrad tests (mice [4]; listed as 0-2094): No inhibitory effect; Spontaneous Activity (Beam Interuptions), vehicle + compound (mice [4]; dose 1 mg/kg i.v.): 83 ± 17 Beam Interuptions; Tail-Flick Latency (% MPE), vehicle + compound (mice [4]; dose 1 mg/kg i.v.): 94 ± 5 % MPE; Spontaneous Activity (Beam Interuptions), SR14176a + comp (mice [4]; dose 1 mg/kg i.v.): 116 ± 21 Beam Interuptions; Tail-Flick Latency (% MPE), SR14176a + comp (mice [4]; dose 1 mg/kg i.v.): 100 % MPE; Spontaneous Activity (Beam Interuptions), vehicle + compound (mice [4]; dose 3 mg/kg i.v.): 118 ± 16 Beam Interuptions; Tail-Flick Latency (% MPE), vehicle + compound (mice [4]; dose 3 mg/kg i.v.): 100 % MPE; Spontaneous Activity (Beam Interuptions), SR14176a + comp (mice [4]; dose 3 mg/kg i.v.): 52 ± 19 Beam Interuptions; Tail-Flick Latency (% MPE), SR14176a + comp (mice [4]; dose 3 mg/kg i.v.): 96 ± 4 % MPE; EC50 (CB1 receptors [2]): 131 nM; activity in the GTPγS binding assay (CB1 receptors [2]): low efficacy partial agonist; Ki (CB1 receptors [3]; read-out: CB1 affinity Ki, listed as 0-2094): 274 ± 19 nM |
| CCCCC/C=C\C/C=C\C/C=C\C/C=C\CCCC(=O)N(C)Cc1ccc(O)c(OC)c1 [Compound O-1988] | 10000 ± 2100 nM | > 50000 nM | 5.98 milligrams per kilogram | 4.08 (2.99-5.56) milligrams per kilogram | 8.74 (5.61-13.60) milligrams per kilogram | 3.11 (1.54-6.29) milligrams per kilogram | 7.98 (5.17-12.34) milligrams per kilogram | 0% | 25 ± 3.9 nM | 69.1% | 2830 ± 175 nM | effect of SR141716A pre-treatment on the compound's effects in the tetrad tests (mice [4]): not affected; Spontaneous Activity (Beam Interuptions), vehicle + compound (mice [4]; dose 3 mg/kg i.v.): 766 ± 157 Beam Interuptions; Tail-Flick Latency (% MPE), vehicle + compound (mice [4]; dose 3 mg/kg i.v.): 54 ± 9 % MPE; Spontaneous Activity (Beam Interuptions), SR14176a + comp (mice [4]; dose 3 mg/kg i.v.): 689 ± 68 Beam Interuptions; Tail-Flick Latency (% MPE), SR14176a + comp (mice [4]; dose 3 mg/kg i.v.): 67 ± 15 % MPE; Spontaneous Activity (Beam Interuptions), vehicle + compound (mice [4]; dose 10 mg/kg i.v.): 179 ± 34 Beam Interuptions; Tail-Flick Latency (% MPE), vehicle + compound (mice [4]; dose 10 mg/kg i.v.): 100 % MPE; Spontaneous Activity (Beam Interuptions), SR14176a + comp (mice [4]; dose 10 mg/kg i.v.): 117 ± 17 Beam Interuptions; Tail-Flick Latency (% MPE), SR14176a + comp (mice [4]; dose 10 mg/kg i.v.): 100 % MPE |
| CCCCC/C=C\C/C=C\C/C=C\C/C=C\CCCNC(=S)NCc1ccc(O)c(Cl)c1 [Compound O-2109] | 3800 ± 700 nM | > 50000 nM | 0.15 milligrams per kilogram | 0.15 (0.10-0.23) milligrams per kilogram | 0.33 (0.02-5.06) milligrams per kilogram | 0.02 (0.02-0.03) milligrams per kilogram | 0.09 (0.06-0.12) milligrams per kilogram | 0% | 4 ± 1.1 nM |  | 1800 ± 204 nM | fold less potent than O-2095 at VR1 (human VR1 receptor): 10 fold |
| CCCCC/C=C\C/C=C\C/C=C\C/C=C\CCCNC(=S)NCc1ccc(O)c(OC)c1 [Compound O-2095] | 7500 ± 1800 nM | > 50000 nM | 0.05 milligrams per kilogram | 0.08 (0.05-0.12) milligrams per kilogram | 0.03 (0.02-0.07) milligrams per kilogram | 0.02 (0.02-0.03) milligrams per kilogram | 0.08 (0.06-0.10) milligrams per kilogram | 0% | 0.4 ± 0.1 nM | 72.1% | 8630 ± 130 nM |  |
| CCCCC/C=C\C/C=C\C/C=C\C/C=C\CCCC(=O)NCc1cccc(OC)c1 [Compound O-1986] | 27300 ± 3500 nM | 18200 ± 2800 nM | 5.80 milligrams per kilogram | 6.13 (4.79-7.83) milligrams per kilogram | 6.15 (3.22-11.73) milligrams per kilogram | 4.74 (3.17-7.09) milligrams per kilogram | 6.15 (4.63-8.16) milligrams per kilogram | 0% | 63 ± 10.1 nM | 68% | 484 ± 17 nM | fold less potent than arvanil at hVR1 (human VR1 receptor): more than 100 fold |
| CCCCC/C=C\C/C=C\C/C=C\C/C=C\CCCNC(=O)NCc1ccc(O)c(OC)c1 [Compound O-1987] | 19300 ± 3300 nM | 2000 ± 400 nM | 0.09 milligrams per kilogram | 0.09 (0.06-0.12) milligrams per kilogram | 0.08 (0.03-0.20) milligrams per kilogram | 0.06 (0.04-0.08) milligrams per kilogram | 0.12 (0.08-0.17) milligrams per kilogram | 0% | 0.7 ± 0.2 nM | 80.6% | 1720 ± 200 nM |  |
